Read-outs that look alike come from different tables or passages of the source.
Columns and labels:
expanded OPCs = assay: cells; settings: for viability at 0.1 µM / viability at 1 µM / viability at 10 µM: Rattus norvegicus, 72 h
Summary of the method: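 Expanded OPCs seeded at 10,000 cells/well in differentiation media, then exposed to NCC library compounds at 10, 1 and 0.1 µM (quadruplicate, 0.1% DMSO) for three days. Viability read as alamarBlue fluorescence (560/590 nm) after 4 h at 37 °C; tunicamycin 5 ng/ml served as toxicity control.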

[1] = tested on: acutely dissociated and purified rat OPCs; assay: Acute OL differentiation assay (MBP expression/cell, immunofluorescent image quantification); assay type: cell-based; settings: sheet "All OLga data"
Summary of the method: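 Oligodendrocyte precursor cells were enriched from P6-P7 Sprague–Dawley rat brains by immunopanning (RAN-2 and GalC depletion, O4 selection), plated at 5000 cells/well in serum-free, mitogen-free differentiation media on PDL/laminin 96-well view plates, centrifuged at 200×g, and pre-incubated 1–2 h before test compounds were added in quadruplicate. On DIV4, cells were fixed, stained for MBP and DAPI, imaged automatically, and MBP expression per cell was quantified.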

[2] = read-out: 0.1 µM (% DMSO), alamarBlue viability of expanded OPCs, compound at 0.1 µM, sheet All Tox data
[3] = read-out: 0.1 µM (% DMSO), alamarBlue viability, NCC library compound at 0.1 µM, sheet "All Tox data"
[4] = read-out: 1 µM (% DMSO), alamarBlue viability of expanded OPCs, compound at 1 µM, sheet All Tox data
[5] = read-out: 1 µM (% DMSO), alamarBlue viability, NCC library compound at 1 µM, sheet "All Tox data"
[6] = read-out: 10 µM (% DMSO), alamarBlue viability of expanded OPCs, compound at 10 µM, sheet All Tox data
[7] = read-out: 10 µM (% DMSO), alamarBlue viability, NCC library compound at 10 µM, sheet "All Tox data"
[8] = Rattus norvegicus, 2 uM test compound, relative to quetiapine, read-out: OL differentiation, 2 uM (% Quet)
[9] = Rattus norvegicus, 10 uM test compound, relative to quetiapine, read-out: OL differentiation, 10 uM (% Quet)
[10] = Rattus norvegicus, test compound at 2 uM, NCC library screen, relative to quetiapine, read-out: 2 uM (% Quet)
[11] = Rattus norvegicus, test compound at 10 uM, NCC library screen, relative to quetiapine, read-out: 10 uM (% Quet)
[12] = alamarBlue viability of expanded OPCs, compound at 0.1 µM, relative to DMSO control
[13] = alamarBlue viability of expanded OPCs, compound at 1 µM, relative to DMSO control
[14] = alamarBlue viability of expanded OPCs, compound at 10 µM, relative to DMSO control
[15] = alamarBlue viability, NCC library compound at 0.1 µM, sheet "All Tox data"
[16] = alamarBlue viability, NCC library compound at 1 µM, sheet "All Tox data"
[17] = alamarBlue viability, NCC library compound at 10 µM, sheet "All Tox data"
[18] = test compound at 2 uM, NCC library screen, relative to quetiapine
[19] = test compound at 10 uM, NCC library screen, relative to quetiapine
[20] = Rattus norvegicus, test compound at 2 uM, MBP expression relative to quetiapine, NCC library screen, read-out: 2 uM (% Quet)
[21] = Rattus norvegicus, test compound at 10 uM, MBP expression relative to quetiapine, NCC library screen, read-out: 10 uM (% Quet)

CC(C(=O)O)c1ccc(-c2ccccc2)c(F)c1 (stereo not shown) [Flurbiprofen]
viability at 0.1 µM (expanded OPCs; [2]): 95.9% | viability at 0.1 µM (expanded OPCs; [3]): 91.1% | viability at 1 µM (expanded OPCs; [4]): 103% | viability at 1 µM (expanded OPCs; [5]): 88.1% | viability at 10 µM (expanded OPCs; [6]): 91.2% | viability at 10 µM (expanded OPCs; [7]): 89.4% | activation at 2 µM [1, 8]: -3.6% | activation at 10 µM [1, 9]: 24.6% | activation at 2 µM [1, 10]: 1.8% | activation at 10 µM [1, 11]: -6.1%

CC(C)C(=O)Nc1ccc([N+](=O)[O-])c(C(F)(F)F)c1 [Flutamide]
0.1 µM (% DMSO) (expanded OPCs; [12]): 88.5 % DMSO | 1 µM (% DMSO) (expanded OPCs; [13]): 91.4 % DMSO | 10 µM (% DMSO) (expanded OPCs; [14]): 103.8 % DMSO | activation at 2 µM [1, 10]: 2.7% | activation at 10 µM [1, 11]: -38.5%

C[C@@H]1C[C@H]2[C@@H]3C[C@H](F)C4=CC(=O)C=C[C@]4(C)[C@@]3(F)[C@@H](O)C[C@]2(C)[C@@]1(O)C(=O)SCF [Fluticasone]
viability at 0.1 µM (expanded OPCs; [2]): 103% | viability at 1 µM (expanded OPCs; [4]): 106% | viability at 10 µM (expanded OPCs; [6]): 112% | activation at 2 µM [1, 8]: 14.2% | activation at 10 µM [1, 9]: -38.8%

CC(C)n1c(/C=C/C(O)CC(O)CC(=O)O)c(-c2ccc(F)cc2)c2ccccc21 (stereo not shown) [Fluvastatin]
0.1 µM (% DMSO) (expanded OPCs; [12]): 96.9 % DMSO | 1 µM (% DMSO) (expanded OPCs; [13]): 53.3 % DMSO | 10 µM (% DMSO) (expanded OPCs; [14]): 9.3 % DMSO | activation at 0.08 µM ([1]; Rattus norvegicus, test compound at 0.08 uM, MBP expression relative to quetiapine, NCC library screen, read-out: 0.08 uM (% Quet)): -66.1% | activation at 0.4 µM ([1]; Rattus norvegicus, test compound at 0.4 uM, MBP expression relative to quetiapine, NCC library screen, read-out: 0.4 uM (% Quet)): -73.4%

COCCCC/C(=N\OCCN)c1ccc(C(F)(F)F)cc1 [Fluvoxamine]
viability at 0.1 µM (expanded OPCs; [2]): 79.1% | viability at 1 µM (expanded OPCs; [4]): 67.7% | viability at 10 µM (expanded OPCs; [6]): 40% | activation at 0.4 µM ([1]; Rattus norvegicus, 0.4 uM test compound, relative to quetiapine, read-out: OL differentiation, 0.4 uM (% Quet)): 3.3% | activation at 2 µM [1, 8]: 23.1%

Nc1nc2ncc(CNc3ccc(C(=O)N[C@@H](CCC(=O)O)C(=O)O)cc3)nc2c(=O)[nH]1 [Folic acid]
0.1 µM (% DMSO) (expanded OPCs; [12]): 110.4 % DMSO | 1 µM (% DMSO) (expanded OPCs; [13]): 104.7 % DMSO | 10 µM (% DMSO) (expanded OPCs; [14]): 104.5 % DMSO | activation at 2 µM [1, 10]: -16.1% | activation at 10 µM [1, 11]: -12.9%

NS(=O)(=O)c1cc(C(=O)O)c(NCc2ccco2)cc1Cl [Furosemide]
0.1 µM (% DMSO) (expanded OPCs; [12]): 87.5 % DMSO | 1 µM (% DMSO) (expanded OPCs; [13]): 91.0 % DMSO | 10 µM (% DMSO) (expanded OPCs; [14]): 97.3 % DMSO | activation at 2 µM [1, 10]: 6% | activation at 10 µM [1, 11]: -6%

COC(=O)N1CCN(C(=O)Cc2ccc(Cl)c(Cl)c2)C(CN2CCCC2)C1 (stereo not shown) [GR 89696]
0.1 µM (% DMSO) (expanded OPCs; [15]): 94.6 % DMSO | 1 µM (% DMSO) (expanded OPCs; [16]): 83.7 % DMSO | 10 µM (% DMSO) (expanded OPCs; [17]): 70.7 % DMSO | 2 uM (% Quet) [1, 18]: 34.9 % Quet | 10 uM (% Quet) [1, 19]: 63.5 % Quet

CCOC(=O)c1ccc(OC(=O)CCCCCNC(=N)N)cc1 [Gabexate]
viability at 0.1 µM (expanded OPCs; [2]): 105% | viability at 1 µM (expanded OPCs; [4]): 109% | viability at 10 µM (expanded OPCs; [6]): 123% | activation at 2 µM [1, 8]: 12.6% | activation at 10 µM [1, 9]: 7.2%

COc1ccc2c3c1O[C@H]1C[C@@H](O)C=C[C@@]31CCN(C)C2 [Galantamine]
viability at 0.1 µM (expanded OPCs; [2]): 86.2% | viability at 1 µM (expanded OPCs; [4]): 81.7% | viability at 10 µM (expanded OPCs; [6]): 81.5% | activation at 2 µM [1, 8]: 14.9% | activation at 10 µM [1, 9]: 16.4%

Nc1nc(O)c2ncn(COC(CO)CO)c2n1 [Ganciclovir]
0.1 µM (% DMSO) (expanded OPCs; [12]): 103.0 % DMSO | 1 µM (% DMSO) (expanded OPCs; [13]): 100.7 % DMSO | 10 µM (% DMSO) (expanded OPCs; [14]): 106.5 % DMSO | activation at 2 µM [1, 20]: 3.8% | activation at 10 µM [1, 21]: -9.7%

COc1c(N2CCNC(C)C2)c(F)cc2c(=O)c(C(=O)O)cn(C3CC3)c12 (stereo not shown) [Gatifloxacin]
0.1 µM (% DMSO) (expanded OPCs; [12]): 99.4 % DMSO | 1 µM (% DMSO) (expanded OPCs; [13]): 98.0 % DMSO | 10 µM (% DMSO) (expanded OPCs; [14]): 96.4 % DMSO | activation at 2 µM [1, 20]: 34.6% | activation at 10 µM [1, 21]: 24.6%

Cc1ccc(C)c(OCCCC(C)(C)C(=O)O)c1 [Gemfibrozil]
0.1 µM (% DMSO) (expanded OPCs; [12]): 90.1 % DMSO | 1 µM (% DMSO) (expanded OPCs; [13]): 88.1 % DMSO | 10 µM (% DMSO) (expanded OPCs; [14]): 86.3 % DMSO | activation at 2 µM [1, 10]: 0.66% | activation at 10 µM [1, 11]: 16.1%

CCC1=C(C)CN(C(=O)NCCc2ccc(S(=O)(=O)NC(=O)N[C@H]3CC[C@H](C)CC3)cc2)C1=O [Glimepiride]
viability at 0.1 µM (expanded OPCs; [3]): 97.2% | viability at 1 µM (expanded OPCs; [5]): 82.6% | viability at 10 µM (expanded OPCs; [7]): 83.6% | activation at 2 µM [1, 10]: -12.7% | activation at 10 µM [1, 11]: -54%

Cc1cnc(C(=O)NCCc2ccc(S(=O)(=O)NC(=O)NC3CCCCC3)cc2)cn1 [Glipizide]
0.1 µM (% DMSO) (expanded OPCs; [12]): 88.0 % DMSO | 1 µM (% DMSO) (expanded OPCs; [13]): 86.3 % DMSO | 10 µM (% DMSO) (expanded OPCs; [14]): 83.0 % DMSO | activation at 2 µM [1, 10]: 6.4% | activation at 10 µM [1, 11]: 8.4%

COc1ccc(Cl)cc1C(=O)NCCc1ccc(S(=O)(=O)NC(=O)NC2CCCCC2)cc1 [Glyburide]
0.1 µM (% DMSO) (expanded OPCs; [12]): 95.4 % DMSO | 1 µM (% DMSO) (expanded OPCs; [13]): 91.5 % DMSO | 10 µM (% DMSO) (expanded OPCs; [14]): 85.2 % DMSO | activation at 2 µM [1, 10]: -19.5% | activation at 10 µM [1, 11]: -20.2%

C[N+]1(C)CCC(OC(=O)C(O)(c2ccccc2)C2CCCC2)C1 (stereo not shown) [Glycopyrrolate]
viability at 0.1 µM (expanded OPCs; [3]): 96.7% | viability at 1 µM (expanded OPCs; [5]): 91.4% | viability at 10 µM (expanded OPCs; [7]): 115% | 0.1 µM (% DMSO) (expanded OPCs; [12]): 100.4 % DMSO | 1 µM (% DMSO) (expanded OPCs; [13]): 104.4 % DMSO | 10 µM (% DMSO) (expanded OPCs; [14]): 113.1 % DMSO | activation at 2 µM [1, 20]: 26.7% | activation at 2 µM [1, 10]: 7.1% | activation at 10 µM [1, 21]: 27.6% | activation at 10 µM [1, 11]: 19.5%

CC(C)C[C@H](NC(=O)[C@@H](COC(C)(C)C)NC(=O)[C@H](Cc1ccc(O)cc1)NC(=O)[C@H](CO)NC(=O)[C@H](Cc1c[nH]c2ccccc12)NC(=O)[C@H](Cc1cnc[nH]1)NC(=O)[C@@H]1CCC(=O)N1)C(=O)N[C@@H](CCCNC(=N)N)C(=O)N1CCC[C@H]1C(=O)NNC(N)=O [Goserelin]
0.1 µM (% DMSO) (expanded OPCs; [15]): 95.7 % DMSO | 1 µM (% DMSO) (expanded OPCs; [16]): 94.5 % DMSO | 10 µM (% DMSO) (expanded OPCs; [17]): 97.2 % DMSO | 2 uM (% Quet) [1, 18]: -6.3 % Quet | 10 uM (% Quet) [1, 19]: 5.4 % Quet

CN1C2CCCC1CC(NC(=O)c1nn(C)c3ccccc13)C2 (stereo not shown) [Granisetron]
viability at 0.1 µM (expanded OPCs; [3]): 84.1% | viability at 1 µM (expanded OPCs; [5]): 87.1% | viability at 10 µM (expanded OPCs; [7]): 72.4% | activation at 2 µM [1, 10]: -25.3% | activation at 10 µM [1, 11]: -23.7%

COC1=CC(=O)C[C@@H](C)[C@]12Oc1c(Cl)c(OC)cc(OC)c1C2=O [Griseofulvin]
0.1 µM (% DMSO) (expanded OPCs; [12]): 95.9 % DMSO | 1 µM (% DMSO) (expanded OPCs; [13]): 93.1 % DMSO | 10 µM (% DMSO) (expanded OPCs; [14]): 66.2 % DMSO | activation at 2 µM [1, 20]: -7.2% | activation at 10 µM [1, 21]: -53.4%

N=C(N)N [Guanidine]
0.1 µM (% DMSO) (expanded OPCs; [15]): 86.5 % DMSO | 1 µM (% DMSO) (expanded OPCs; [16]): 89.1 % DMSO | 10 µM (% DMSO) (expanded OPCs; [17]): 85.5 % DMSO | 2 uM (% Quet) [1, 18]: 1.4 % Quet | 10 uM (% Quet) [1, 19]: 5.3 % Quet

Reference: article PMC5011342, “A high throughput drug screening assay to identify compounds that promote oligodendrocyte differentiation using acutely dissociated and purified oligodendrocyte precursor cells” (BMC Research Notes, 2016)
